Laboratory results: PubChem BioAssay AID242 (DTP/NCI, 2004)
Several values for one entry are separate records, joined by “and”; a condition that tells them apart may be missing. Equal entries are not always repeated. Inconclusive results and toxic doses are left out. The calls were made as follows: active = survival T/C of 150% or more; inactive = T/C below 125% in these data.

System: BDF1 mice, Lymphoma 8 ip, survival T/C
Experiment: NCI In Vivo Anticancer Drug Screen. Data for tumor model Lymphoma 8 (intraperitoneal) in B6D2F1 (BDF1) mice
Details: higher = longer survival
Procedure: The antitumor activity of compounds was measured in mice bearing transplantable tumors. Survival or tumor size were measured and the results are expressed as the measurement made in the treated group (T) divided by the measurement made in the vehicle treated control group (C). The tumor model used in this assay is Lymphoma 8 (intraperitoneal) in B6D2F1 (BDF1) mice

[1] = endpoint: survival time, mean or median, dose: 2.5 mg/kg/injection, schedule: Q01DX010 (ip), vehicle: saline
[2] = endpoint: survival time, mean or median, dose: 5.0 mg/kg/injection, schedule: Q01DX010 (ip), vehicle: saline
[3] = endpoint: survival time, mean or median, dose: 20.0 mg/kg/injection, schedule: Q01DX010 (ip), vehicle: saline
[4] = endpoint: survival time, mean or median, dose: 125.0 mg/kg/injection, schedule: Q01DX010 (ip), vehicle: saline
[5] = endpoint: survival time, mean or median, dose: 250.0 mg/kg/injection, schedule: Q01DX010 (ip), vehicle: saline
[6] = endpoint: survival time, mean or median, dose: 500.0 mg/kg/injection, schedule: Q01DX010 (ip), vehicle: saline
[7] = endpoint: survival time, mean or median, dose: 25.0 mg/kg/injection, schedule: Q01DX015 (ip), vehicle: carboxymethylcellulose (CMC)
[8] = endpoint: survival time, mean or median, dose: 50.0 mg/kg/injection, schedule: Q01DX015 (ip), vehicle: carboxymethylcellulose (CMC)
[9] = endpoint: survival time, mean or median, dose: 100.0 mg/kg/injection, schedule: Q01DX015 (ip), vehicle: carboxymethylcellulose (CMC)
[10] = endpoint: survival time, mean or median, dose: 200.0 mg/kg/injection, schedule: Q01DX015 (ip), vehicle: carboxymethylcellulose (CMC)
[11] = endpoint: survival time, mean or median, dose: 62.5 mg/kg/injection, schedule: Q01DX010 (ip), vehicle: saline

Measured: T/C

N[C@H](C(=O)O)[C@@H]1CC(Cl)=NO1
inactive: endpoint: median survival time, dose: 0.38 mg/kg/injection, schedule: Q01DX009 (ip), vehicle: saline 92 % of control | endpoint: median survival time, dose: 0.75 mg/kg/injection, schedule: Q01DX009 (ip), vehicle: saline 78 % of control | endpoint: median survival time, dose: 1.5 mg/kg/injection, schedule: Q01DX009 (ip), vehicle: saline 69 % of control | endpoint: median survival time, dose: 3.0 mg/kg/injection, schedule: Q01DX009 (ip), vehicle: saline 74 % of control

S=P(N1CCOCC1)(N1CC1)N1CC1
inactive: [1] 100 % of control and 113 % of control | [2] 104 % of control and 109 % of control | endpoint: survival time, mean or median, dose: 10.0 mg/kg/injection, schedule: Q01DX010 (ip), vehicle: saline 113 % of control | [3] 86 % of control and 122 % of control

CCOC(N)=O
inactive: [4] 105 % of control | [5] 100 % of control | [6] 100 % of control

Cn1c(O)c(N=NC(N)=S)c2ccccc21
inactive: endpoint: survival time, mean or median, dose: 1.5 mg/kg/injection, schedule: Q01DX015 (ip), vehicle: carboxymethylcellulose (CMC) 100 % of control | endpoint: survival time, mean or median, dose: 3.0 mg/kg/injection, schedule: Q01DX015 (ip), vehicle: carboxymethylcellulose (CMC) 98 % of control | endpoint: survival time, mean or median, dose: 6.0 mg/kg/injection, schedule: Q01DX015 (ip), vehicle: carboxymethylcellulose (CMC) 99 % of control | endpoint: survival time, mean or median, dose: 12.5 mg/kg/injection, schedule: Q01DX015 (ip), vehicle: carboxymethylcellulose (CMC) 95 % of control | [7] 97 % of control | [8] 124 % of control | [9] 117 % of control | [10] 115 % of control

CCn1cnc2c(=S)nc[nH]c21
inactive: endpoint: survival time, mean or median, dose: 15.6 mg/kg/injection, schedule: Q01DX010 (ip), vehicle: saline 91 % of control and 100 % of control | endpoint: survival time, mean or median, dose: 31.3 mg/kg/injection, schedule: Q01DX010 (ip), vehicle: saline 100 % of control | [11] 92 % of control and 100 % of control

Nc1c(Br)cc2c(c1Br)Cc1cc([N+](=O)[O-])ccc1-2
inactive: endpoint: survival time, mean or median, dose: 62.5 mg/kg/injection, schedule: Q01DX015 (ip), vehicle: carboxymethylcellulose (CMC) 88 % of control | endpoint: survival time, mean or median, dose: 125.0 mg/kg/injection, schedule: Q01DX015 (ip), vehicle: carboxymethylcellulose (CMC) 87 % of control

CS(=O)(=O)OCCN(CCOS(C)(=O)=O)c1ccc(N=O)cc1
inactive: endpoint: survival time, mean or median, dose: 0.25 mg/kg/injection, schedule: Q01DX010 (ip), vehicle: saline 121 % of control | endpoint: survival time, mean or median, dose: 0.5 mg/kg/injection, schedule: Q01DX010 (ip), vehicle: saline 110 % of control | endpoint: survival time, mean or median, dose: 63.0 micrograms/kg/injection, schedule: Q01DX010 (ip), vehicle: saline 113 % of control | endpoint: survival time, mean or median, dose: 125.0 micrograms/kg/injection, schedule: Q01DX010 (ip), vehicle: saline 120 % of control | endpoint: survival time, mean or median, dose: 500.0 micrograms/kg/injection, schedule: Q01DX010 (ip), vehicle: saline 123 % of control

N=C(N)SCc1c2ccccc2c(CSC(=N)N)c2ccccc12
inactive: [1] 106 % of control and 121 % of control | [2] 113 % of control | [3] 113 % of control and 114 % of control

Nc1nc2n[nH]nc2c(=O)[nH]1
inactive: endpoint: survival time, mean or median, dose: 25.0 mg/kg/injection, schedule: Q01DX010 (ip), vehicle: alkali diluted with saline 108 % of control | endpoint: survival time, mean or median, dose: 50.0 mg/kg/injection, schedule: Q01DX010 (ip), vehicle: alkali diluted with saline 104 % of control and 112 % of control | endpoint: survival time, mean or median, dose: 100.0 mg/kg/injection, schedule: Q01DX010 (ip), vehicle: alkali diluted with saline 112 % of control and 116 % of control | endpoint: survival time, mean or median, dose: 200.0 mg/kg/injection, schedule: Q01DX010 (ip), vehicle: alkali diluted with saline 116 % of control

Clc1ccc2c(Cl)ncnc2c1
inactive: [7] 95 % of control | [8] 88 % of control

CC(CCC(C)OS(C)(=O)=O)OS(C)(=O)=O (stereo not given)
inactive: endpoint: survival time, mean or median, dose: 2.0 mg/kg/injection, schedule: Q01DX010 (ip), vehicle: saline 92 % of control and 100 % of control | endpoint: survival time, mean or median, dose: 4.0 mg/kg/injection, schedule: Q01DX010 (ip), vehicle: saline 103 % of control and 104 % of control | endpoint: survival time, mean or median, dose: 8.0 mg/kg/injection, schedule: Q01DX010 (ip), vehicle: saline 103 % of control and 104 % of control | endpoint: survival time, mean or median, dose: 16.0 mg/kg/injection, schedule: Q01DX010 (ip), vehicle: saline 100 % of control and 116 % of control

CN(C)C(=S)N=Nc1c(O)[nH]c2ccccc12
inactive: [7] 124 % of control | [9] 104 % of control

COc1cc(-c2ccc(Nc3ccccc3C(=O)O)c(OC)c2)ccc1Nc1ccccc1C(=O)O
inactive: [7] 101 % of control | [8] 89 % of control | [9] 96 % of control | [10] 90 % of control

CC(=O)N(C)C
inactive: [11] 86 % of control and 105 % of control and 121 % of control | [4] 95 % of control and 100 % of control and 112 % of control | [5] 95 % of control and 105 % of control | [6] 95 % of control and 100 % of control and 115 % of control

Clc1ncnc2nc[nH]c12
inactive: endpoint: survival time, mean or median, dose: 7.5 mg/kg/injection, schedule: Q01DX010 (ip), vehicle: saline 100 % of control | endpoint: survival time, mean or median, dose: 15.0 mg/kg/injection, schedule: Q01DX010 (ip), vehicle: saline 100 % of control | endpoint: survival time, mean or median, dose: 30.0 mg/kg/injection, schedule: Q01DX010 (ip), vehicle: saline 110 % of control | endpoint: survival time, mean or median, dose: 60.0 mg/kg/injection, schedule: Q01DX010 (ip), vehicle: saline 100 % of control

CCCCN(CCCC)CCCCCN
inactive: endpoint: survival time, mean or median, dose: 5.0 mg/kg/injection, schedule: Q01DX015 (ip), vehicle: carboxymethylcellulose (CMC) 99 % of control | endpoint: survival time, mean or median, dose: 10.0 mg/kg/injection, schedule: Q01DX015 (ip), vehicle: carboxymethylcellulose (CMC) 101 % of control | endpoint: survival time, mean or median, dose: 20.0 mg/kg/injection, schedule: Q01DX015 (ip), vehicle: carboxymethylcellulose (CMC) 104 % of control | endpoint: survival time, mean or median, dose: 30.0 mg/kg/injection, schedule: Q01DX015 (ip), vehicle: carboxymethylcellulose (CMC) 99 % of control
